# Source: US12410152B2, “Oxazole and thioazole-type cullin ring ubiquitin ligase compounds and uses thereof” (Proxygen GmbH, priority 2019, dated 2025)
# Tests used:
# [1] = biological target: T1, CRL4B complex (CUL4B, DDB1) (Homo sapiens, UniProt Q13620+Q16531); assay: Chemoproteomics with IC021313.2 photoaffinity probe, competitive setup; format: binding; details: KBM7 WT; 100 μM competitor, 10 μM photoprobe
# T1 construct: endogenous in cells; host or cells: KBM7 WT cells
# Description: Another explanation would be (2) functional redundancy, where our identified small-molecules modulate more than one SR in an interchangeable manner (either directly or indirectly). Lastly (3), it could be that the tested molecules endow a neomorphic function of the CRL4B complex by binding to a non-SR component. In order to disentangle these hypotheses, and to test if the assayed molecules would directly bind to/physically engage the CRL4B complex, IC021313.2 was derivatized with a moiety consisting of a photoactive diazirine group and an alkyl handle (FIG. 7). The ensuing functionalized molecule was used to purify proteins physically binding to the compound (“interactors”). In order to gain increased confidence, a competitive setup was chosen where cells were initially treated with the parental, non-modified compound or vehicle control. Compound treatment (1h) at excess concentrations of 100 μM was expected to saturate binding sites. Subsequently, cells (both vehicle- and compound-treated) were treated with the functionalized probe for 1 h at 10 μM, followed by UV-crosslinking. Next, cells were lysed and a biotin-azide linker was attached via click chemistry, and interacting proteins (“interactors”) were purified via biotin enrichment over a Streptavidin column and subjected to unbiased detection via label-free proteomics analysis. […]
# CDK12/13 = biological target: T2, CDK12/13 (Homo sapiens, UniProt Q14004); assay: CDK12/13 destabilization (expression proteomics and Western blot); format: cell-based; details: expression proteomics, drug vs DMSO; Table 4, log2FC < −0.3
# T2 construct: endogenous in cells; host or cells: KBM7 cells
# Description: The hypomorphic phenotype of the mutated UBE2M allele in KBM7 cells (KBM7 UBE2M^mut cells) was assessed. In this regard, CRISPR/Cas9-induced mutation of UBE2M inactivated CRL activity including CRL4^CRBN and CRL2^VHL. […] Additionally, CCNK destabilization by all three compounds was validated via time-resolved immunoblots wherein CCNK degradation was evident after two hours (FIG. 19c).
# PBS-washed cell pellets were lysed in 50 mM Tris pH 7.9, 8M Urea and 1% CHAPS and incubated with shaking at 4° C. for at least 30 min. 20 μg of supernatants were run and transferred for detection. Antibodies used: CUL1 (Santa Cruz Biotechnology, sc-1276), CUL2 (Sigma-Aldrich, SAB2501565-100), CUL3 (Cell Signaling Technology, 2759), CUL4A (Cell Signaling Technology, 2699S), CUL4B (Proteintech, 12916-1-AP), CUL5 (Santa Cruz Biotechnology, sc-373822), UBE2M (Santa Cruz Biotechnology, sc-390064), DDB1 (Cell Signaling Technology, 5428S), CCNK (Bethyl, A301-939A), CDK12 (Cell Signaling Technology, 11973S), CDK13 (Bethyl, A301-458A), RBM39 (1:500, Santa Cruz Biotechnology sc-376531), V5 (Cell Signaling Technology, 13202), Ubiquityl-Histone H2A (K119) (Cell Signaling, 8240-20). ACTIN (Sigma-Aldrich, A5441), VINCUL1N (Santa Cruz Biotechnology, sc-25336). Secondary antibodies anti-mouse/rabbit/goat (Jackson ImmunoResearch 115-035-003, 111-035-003 and 705-035-003).
# Comparison of overall proteome-wide changes in KBM7 cells treated with IC020772.1 (2.5 μM), IC021313.2 (7 μM) or T6938051 (3.5 μM) for 5 h and 12h, using quantitative proteomics based on isobaric tagging.
# T1 sequence (Q13620 whole entry): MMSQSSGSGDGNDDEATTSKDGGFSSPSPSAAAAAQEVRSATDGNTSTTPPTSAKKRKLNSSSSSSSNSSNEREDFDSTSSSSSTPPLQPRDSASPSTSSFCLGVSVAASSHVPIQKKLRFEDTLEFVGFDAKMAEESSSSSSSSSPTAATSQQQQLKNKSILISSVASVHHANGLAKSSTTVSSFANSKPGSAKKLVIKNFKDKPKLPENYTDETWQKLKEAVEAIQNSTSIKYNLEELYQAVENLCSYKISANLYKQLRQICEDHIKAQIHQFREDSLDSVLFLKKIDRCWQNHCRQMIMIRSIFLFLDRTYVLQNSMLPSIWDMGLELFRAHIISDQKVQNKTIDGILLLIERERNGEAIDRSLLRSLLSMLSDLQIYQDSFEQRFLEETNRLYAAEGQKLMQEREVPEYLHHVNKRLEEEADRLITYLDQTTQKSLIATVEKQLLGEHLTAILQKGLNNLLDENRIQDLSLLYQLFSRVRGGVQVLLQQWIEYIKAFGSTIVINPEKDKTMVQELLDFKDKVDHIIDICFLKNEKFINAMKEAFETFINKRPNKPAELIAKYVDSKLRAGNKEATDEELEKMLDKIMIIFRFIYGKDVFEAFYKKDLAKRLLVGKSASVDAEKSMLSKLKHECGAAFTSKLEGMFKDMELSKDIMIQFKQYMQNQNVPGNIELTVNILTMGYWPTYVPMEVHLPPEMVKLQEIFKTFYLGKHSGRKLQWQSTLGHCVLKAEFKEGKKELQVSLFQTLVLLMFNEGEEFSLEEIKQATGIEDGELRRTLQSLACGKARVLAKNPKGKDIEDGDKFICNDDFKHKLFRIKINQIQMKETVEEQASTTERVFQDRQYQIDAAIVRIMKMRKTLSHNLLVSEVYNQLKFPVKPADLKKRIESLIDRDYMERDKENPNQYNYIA
# T1 sequence (Q16531 2-1140 limits assumed): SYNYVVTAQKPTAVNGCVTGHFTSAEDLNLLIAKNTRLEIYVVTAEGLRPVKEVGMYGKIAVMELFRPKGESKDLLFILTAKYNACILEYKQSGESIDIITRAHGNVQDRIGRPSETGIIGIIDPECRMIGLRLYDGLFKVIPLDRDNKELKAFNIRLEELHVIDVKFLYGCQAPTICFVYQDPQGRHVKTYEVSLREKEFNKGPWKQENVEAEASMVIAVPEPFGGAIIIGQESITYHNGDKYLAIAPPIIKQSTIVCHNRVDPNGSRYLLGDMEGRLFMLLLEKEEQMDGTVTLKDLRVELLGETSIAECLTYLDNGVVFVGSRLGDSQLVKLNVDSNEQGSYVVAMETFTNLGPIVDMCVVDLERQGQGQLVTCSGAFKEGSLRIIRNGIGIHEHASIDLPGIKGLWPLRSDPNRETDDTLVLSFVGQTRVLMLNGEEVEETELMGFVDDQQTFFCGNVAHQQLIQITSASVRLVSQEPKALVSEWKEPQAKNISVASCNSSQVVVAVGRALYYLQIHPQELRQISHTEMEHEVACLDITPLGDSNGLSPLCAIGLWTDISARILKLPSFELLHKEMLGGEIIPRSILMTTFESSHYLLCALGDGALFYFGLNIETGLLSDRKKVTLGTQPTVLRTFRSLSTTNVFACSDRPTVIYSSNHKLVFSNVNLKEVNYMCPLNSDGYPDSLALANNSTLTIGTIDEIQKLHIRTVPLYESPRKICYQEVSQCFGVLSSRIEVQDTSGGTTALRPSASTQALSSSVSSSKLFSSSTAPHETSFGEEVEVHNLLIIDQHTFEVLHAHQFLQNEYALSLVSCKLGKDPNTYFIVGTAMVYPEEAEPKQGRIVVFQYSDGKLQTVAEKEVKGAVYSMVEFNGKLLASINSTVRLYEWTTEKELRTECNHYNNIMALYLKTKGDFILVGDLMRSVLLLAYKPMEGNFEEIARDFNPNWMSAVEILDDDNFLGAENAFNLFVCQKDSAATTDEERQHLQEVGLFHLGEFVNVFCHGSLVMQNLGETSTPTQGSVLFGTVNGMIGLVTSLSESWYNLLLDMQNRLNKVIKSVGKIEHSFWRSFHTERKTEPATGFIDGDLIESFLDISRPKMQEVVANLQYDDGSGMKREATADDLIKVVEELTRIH
# T1 sequence (Q9NYV4 whole entry partner): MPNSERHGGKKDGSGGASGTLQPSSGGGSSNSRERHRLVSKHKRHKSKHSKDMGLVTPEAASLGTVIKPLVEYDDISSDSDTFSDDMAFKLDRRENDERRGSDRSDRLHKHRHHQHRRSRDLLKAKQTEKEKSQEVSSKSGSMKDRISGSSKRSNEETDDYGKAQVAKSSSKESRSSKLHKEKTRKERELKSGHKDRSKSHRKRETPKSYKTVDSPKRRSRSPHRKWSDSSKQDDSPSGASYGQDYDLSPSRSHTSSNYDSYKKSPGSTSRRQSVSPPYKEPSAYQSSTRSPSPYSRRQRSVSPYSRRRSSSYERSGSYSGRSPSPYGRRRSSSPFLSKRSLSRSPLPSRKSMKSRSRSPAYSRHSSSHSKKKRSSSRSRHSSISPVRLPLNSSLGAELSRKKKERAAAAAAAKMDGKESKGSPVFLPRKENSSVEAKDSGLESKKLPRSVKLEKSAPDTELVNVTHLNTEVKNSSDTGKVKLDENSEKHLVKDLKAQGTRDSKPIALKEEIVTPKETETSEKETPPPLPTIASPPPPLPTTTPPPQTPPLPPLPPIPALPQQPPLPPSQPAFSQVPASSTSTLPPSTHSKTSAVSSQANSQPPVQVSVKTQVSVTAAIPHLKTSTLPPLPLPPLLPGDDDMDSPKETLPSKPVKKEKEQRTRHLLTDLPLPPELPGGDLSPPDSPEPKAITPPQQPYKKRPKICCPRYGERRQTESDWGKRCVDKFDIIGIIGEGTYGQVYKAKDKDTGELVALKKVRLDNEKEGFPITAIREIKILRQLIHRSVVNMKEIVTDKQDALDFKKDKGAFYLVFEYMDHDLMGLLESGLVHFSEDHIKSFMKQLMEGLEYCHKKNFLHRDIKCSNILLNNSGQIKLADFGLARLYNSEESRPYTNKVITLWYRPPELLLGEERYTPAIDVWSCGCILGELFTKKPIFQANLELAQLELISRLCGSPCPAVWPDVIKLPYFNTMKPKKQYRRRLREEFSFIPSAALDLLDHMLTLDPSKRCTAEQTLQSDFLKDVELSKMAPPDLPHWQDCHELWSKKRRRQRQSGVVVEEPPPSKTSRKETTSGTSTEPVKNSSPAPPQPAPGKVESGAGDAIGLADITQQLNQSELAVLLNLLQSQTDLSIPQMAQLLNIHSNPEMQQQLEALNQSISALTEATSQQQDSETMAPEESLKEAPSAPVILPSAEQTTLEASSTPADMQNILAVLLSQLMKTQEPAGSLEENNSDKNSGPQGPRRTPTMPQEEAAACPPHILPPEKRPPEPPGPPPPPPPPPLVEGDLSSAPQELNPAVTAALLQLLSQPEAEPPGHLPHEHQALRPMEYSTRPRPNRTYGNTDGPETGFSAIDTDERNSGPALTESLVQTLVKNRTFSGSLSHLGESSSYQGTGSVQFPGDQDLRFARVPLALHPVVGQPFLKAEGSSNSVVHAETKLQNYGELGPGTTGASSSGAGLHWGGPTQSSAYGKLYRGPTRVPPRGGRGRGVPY
# T1 sequence (O75909 whole entry partner): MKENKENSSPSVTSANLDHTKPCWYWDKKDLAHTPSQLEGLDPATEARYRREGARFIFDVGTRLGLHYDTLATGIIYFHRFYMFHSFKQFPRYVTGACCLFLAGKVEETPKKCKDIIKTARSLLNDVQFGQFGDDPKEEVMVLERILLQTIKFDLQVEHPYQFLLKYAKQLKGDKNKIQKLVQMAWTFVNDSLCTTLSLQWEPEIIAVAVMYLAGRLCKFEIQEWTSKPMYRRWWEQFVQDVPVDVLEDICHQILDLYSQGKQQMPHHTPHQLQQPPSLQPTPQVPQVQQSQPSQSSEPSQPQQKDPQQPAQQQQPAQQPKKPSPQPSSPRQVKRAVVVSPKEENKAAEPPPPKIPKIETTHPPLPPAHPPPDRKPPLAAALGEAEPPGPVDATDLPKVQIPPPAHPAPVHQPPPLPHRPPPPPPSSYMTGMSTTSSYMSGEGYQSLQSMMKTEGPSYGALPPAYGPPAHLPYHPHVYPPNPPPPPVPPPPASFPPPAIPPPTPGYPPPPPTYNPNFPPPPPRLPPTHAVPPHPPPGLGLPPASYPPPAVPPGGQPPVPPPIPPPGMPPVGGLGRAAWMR
structure (smiles),measurement,setting,value
O=C(CSc1nc2ccccc2[nH]1)Nc1ccc(Cl)cn1 [IC021313.2],"physical engagement of CRL4B complex (competitive photoprobe pulldown, MS)",[1],physically engages with a CRL4B complex
same,"logFC (IC021313.2/DMSO), CDK13 (Q14004-2)",CDK12/13,−0.6574
